Our source for the EC50 values is US20160311806A1, “4,4'-BIPHENYLDIYL-BIS-(1 H-IMIDAZOLYL) DERIVATIVES AS HEPATITIS HCV INHIBITORS” (BRISTOL-MYERS SQUIBB COMPANY, priority 2013, published 2016).

One assay concerns HCV 1b genotype. The assay can be described thus: HCV replicon assay, genotype 1b. Type of assay: cell-based. To be noted: Hepatitis C virus, read-out: 1b LE (EC50). As for the experimental part:
(§1) An HCV Replicon assay was utilized in the present disclosure, and was prepared, conducted and validated as described in commonly owned PCT/US2006/022197 and in O'Boyle et. al. Antimicrob Agents Chemother. 2005 April; 49(4):1346-53. Assay methods incorporating luciferase reporters have also been used as described (Apath.com).
(§2) HCV-neo replicon cells and replicon cells containing resistance substitutions in the NS5A region were used to test the currently described family of compounds. The compounds were determined to have differing degrees of reduced inhibitory activity on cells containing mutations vs. the corresponding inhibitory potency against wild-type cells. Thus, the compounds of the present disclosure can be effective in inhibiting the function of the HCV NS5A protein and are understood to be as effective in combinations as previously described in application PCT/US2006/022197 and commonly owned WO/04014852. It should be understood that the compounds of the present disclosure can inhibit multiple genotypes of HCV.

The test system of the next assay is HCV 1a. The assay can be described thus: HCV replicon assay, genotype 1a. The class given is cell-based. To be noted: Hepatitis C virus, read-out: 1a LE (EC50). Here is the method:
as §1, §2

The structures appear in SMILES notation. Where two headings read alike, the source gives them in different places.

On to `CC[C@@H]1C[C@@H]([C@H](NC(=O)OC)C(=O)N2[C@@H](C)CC[C@H]2c2ncc(-c3ccc(-c4ccc(-c5cnc([C@@H]6CC[C@H](C)N6C(=O)[C@@H](NC(=O)OC)[C@H]6C[C@@H](C)O[C@H](C7CC7)C6)[nH]5)cc4)cc3)[nH]2)CCO1` [Example 2, methyl N-[(1S)-1-[(2S,4S,6R)-2-cyclopropyl-6-methyloxan-4-yl]-2-[(2S,5S)-2-{5-[4-(4-{2-[(2S,5S)-1-[(2S)-2-[(2R,4S)-2-ethyloxan-4-yl]-2-[(methoxycarbonyl)amino]acetyl]-5-methylpyrrolidin-2-yl]-1H-imidazol-5-yl}phenyl)phenyl]-1H-imidazol-2-yl}-5-methylpyrrolidin-1-yl]-2-oxoethyl]carbamate], for which the EC50 in the assay on HCV 1b genotype came out at 5.76 pM; in the assay on HCV 1a, 4.52 pM.

As for `COC(=O)N[C@H](C(=O)N1[C@@H](C)CC[C@H]1c1ncc(-c2ccc(-c3ccc(-c4cnc([C@@H]5CC[C@H](C)N5C(=O)[C@@H](NC(=O)OC)[C@H]5C[C@@H](C)O[C@H](C6CC6)C5)[nH]4)cc3)cc2)[nH]1)C1C[C@@H](C)O[C@H](C)C1` (stereo partly drawn) [Example 5, methyl N-[(1S)-1-[(2S,4S,6R)-2-cyclopropyl-6-methyloxan-4-yl]-2-[(2S,5S)-2-{5-[4-(4-{2-[(2S,5S)-1-[(2S)-2-[(2R,6R)-2,6-dimethyloxan-4-yl]-2-[(methoxycarbonyl)amino]acetyl]-5-methylpyrrolidin-2-yl]-1H-imidazol-5-yl}phenyl)phenyl]-1H-imidazol-2-yl}-5-methylpyrrolidin-1-yl]-2-oxoethyl]carbamate], the EC50 in the assay with HCV 1b genotype (given as range class) and in the assay with HCV 1a (given as range class) was 2 to 8 pM throughout.

In the case of `COC(=O)N[C@H](C(=O)N1[C@@H](C)CC[C@H]1c1ncc(-c2ccc(-c3ccc(-c4cnc([C@@H]5CC[C@H](C)N5C(=O)[C@H](NC(=O)OC)c5ccccc5)[nH]4)cc3)cc2)[nH]1)[C@H]1C[C@@H](C)O[C@H](C2CC2)C1` [Example 4, methyl N-[(1S)-1-[(2S,4S,6R)-2-cyclopropyl-6-methyloxan-4-yl]-2-[(2S,5S)-2-{5-[4-(4-{2-[(2S,5S)-1-[(2R)-2-[(methoxycarbonyl)amino]-2-phenylacetyl]-5-methylpyrrolidin-2-yl]-1H-imidazol-5-yl}phenyl)phenyl]-1H-imidazol-2-yl}-5-methylpyrrolidin-1-yl]-2-oxoethyl]carbamate], the EC50 with HCV 1b genotype (given as range class) and in the assay with HCV 1a (given as range class) was 2 to 8 pM in each case.

On to `COC(=O)N[C@H](C(=O)N1[C@@H](C)CC[C@H]1c1ncc(-c2ccc(-c3ccc(-c4cnc([C@@H]5CC[C@H](C)N5C(=O)[C@@H](NC(=O)OC)[C@H]5C[C@@H](C)O[C@H](C6CC6)C5)[nH]4)cc3)cc2)[nH]1)C(C)C` [Example 3, methyl N-[(1S)-1-[(2S,4S,6R)-2-cyclopropyl-6-methyloxan-4-yl]-2-[(2S,5S)-2-{5-[4-(4-{2-[(2S,5S)-1-[(2S)-2-[(methoxycarbonyl)amino]-3-methylbutanoyl]-5-methylpyrrolidin-2-yl]-1H-imidazol-5-yl}phenyl)phenyl]-1H-imidazol-2-yl}-5-methylpyrrolidin-1-yl]-2-oxoethyl]carbamate], for which the EC50 turned out to be 2.72 pM in the assay with HCV 1b genotype and 7.18 pM in the assay with HCV 1a.

On to `CC[C@@H]1C[C@@H]([C@H](NC(=O)OC)C(=O)N2[C@@H](C)CC[C@H]2c2ncc(-c3ccc(-c4ccc(-c5cnc([C@@H]6CC[C@H](C)N6C(=O)[C@@H](NC(=O)OC)[C@H]6C[C@@H](C)O[C@H](C7CC7)C6)[nH]5)cc4)cc3)[nH]2)C[C@@H](C)O1` [Example 1, methyl N-[(1S)-1-[(2S,4S,6R)-2-cyclopropyl-6-methyloxan-4-yl]-2-[(2S,5S)-2-{5-[4-(4-{2-[(2S,5S)-1-[(2S)-2-[(2R,4S,6R)-2-ethyl-6-methyloxan-4-yl]-2-[(methoxycarbonyl)amino]acetyl]-5-methylpyrrolidin-2-yl]-1H-imidazol-5-yl}phenyl)phenyl]-1H-imidazol-2-yl}-5-methylpyrrolidin-1-yl]-2-oxoethyl]carbamate], for which the concentration giving a half-maximal response (EC50) in the assay on HCV 1b genotype (given as range class) and in the assay with HCV 1a (given as range class) was 2 to 8 pM in each case.
